Experiments:
male Wistar rats [1] = assay: Irwin test; format: in vivo, rat; conditions: injected into tail vein, escalating doses
Protocol: An Irwin test was performed on 12 male Wistar rats (Iffa Credo, L'Arbresles, France), weighing 260-280 g. They were housed in groups of 4 in a climate controlled room with a 12 h light:dark cycle (light 8:00 PM-8:00 AM) and had access to food and water ad libitum. After a seven day acclimatization period, the rats were weighed, identified and randomly assigned to one of the four treatment groups. The drug was injected to the tail vein of the rats according to the group dose.
Observations were performed 15, 30, 60 and 120 minutes after administration. Among the most noticeable results are the results concerning the awareness state of the rats. […] Rats injected FG-005 are less stressed as shown by startle response test (FIG. 2), and by the abdominal tone (FIG. 3).

male Wistar rats [2] = assay: Behavior of male rats in the presence of receptive females; format: in vivo, rat
Protocol: Behavior tests were performed on 12 male Wistar rats (Iffa Credo, L'Arbresles, France), weighing 260-280 g. They were housed in groups of 4 in a climate controlled room with a 12-h light:dark cycle and had access to food and water ad libitum. After seven days acclimatization period, the rats were weighed, identified and randomly assigned to one of the four treatment groups. The rats were familiarized once with female rats which had been brought to sexual receptivity by injecting estradiol benzoate for 4 days (5 μg/0.5 ml oil, s.c. once daily). Behavioral testing was performed under blind conditions in a dimlight environment 2 hours after the onset of the dark phase of the light/dark cycle. Behavior was assessed by placing the male rat in a plexiglass cage (50×30×20 cm) five minutes before a receptive female was presented. All of the tests on rats were recorded on a VHS-videotape. The recorded parameters were: number of ejaculations, latency of first mount, latency of first ejaculation, number of mounts, postejaculatory interval, avoidance behavior patterns, awareness of other rats presence, initiation or response to social interaction, interest in other rat, self-care, willingness to enter into relationship. All of the quantitative results were analyzed using the Kruskal-Wallis test followed by the Mann-Whitney U-Test to compare each treated group with the control group. The statistical analyzes were carried out using the Statview 4.1 statistical package.

[3] = system: male rats with sexually receptive female; assay: Dose-response relationship of FG-005 on male rat sexual behavior; format: in vivo; conditions: for total number of mounts with or without intromission, Mean: 45-min observation
Protocol: Effect of increasing concentrations of FG-005 peptide (SMR1-QHNPR) given i.v. on the number of sexual intercourse episodes of male rats with sexually receptive female, was assessed. All of the […] parameters were analyzed using one-way analysis of variance (ANOVA) for the differences between treated groups and followed by the multiple comparison test of Fisher (PLSD Fisher) to compare each group of FG-005-injected rats with the control group (vehicle-injected rats). Nine to ten rats were used for each group and P value of less than 0.005 was considered as significant for both tests.
This is appreciated by the significant dose-dependent increase of sexual interactions (mounts, mounts with intromission and mounts per ejaculation) during (first ejaculation latency and interejaculatory latency) episodes of sexual intercourse.

male rats [4] = assay: First two post ejaculatory intervals (PEI); format: in vivo, rat
Protocol: All quantitative results are statistically analyzed using a Krukal-Wallis test (KWT), as a between-group variable, followed by Mann-Whitney U-test (MWT) to compare the treated group to control one. Friedman test (FT), as within-group variable, was used for repeated measures across the first three ejaculatory series, followed by Wilcoxon (WT). Data are reported as mean ±SEM. For all statistical evaluations, the level of significance was set at p<0.05. All statistical analyses were carried out using the Statview™ 4.5 statistical package (Abacus Concepts, Inc, Berkeley, Calif.).
Masculine sociosexual behaviors other than copulatory acts were measured and analyzed during the two successive post-ejaculatory intervals. Among these are pursuit of the female, sniffing, grooming, running behind the partner in close contact and anogenital exploration (sniffing, licking and grooming the partner). […] Thus, for a similar amount of time in PEI duration compared to controls, the 3 μg/kg-treated rats spent during this interval, 7 to 10 fold more amount of time to pursue and groom the female.

male Wistar/AF EOPS rats [5] = assay: Behavioral despair test (forced swimming); format: in vivo, rat; conditions: for Immobility period, Retest session / Immobility period, Test session: first 5 minutes; for Immobility period, Test session: test is before any treatment
Protocol: Forty male Wistar/AF EOPS rats (Iffa-Credo Breeding Centre, 69-St-Germain sur l'Arbresle, France), weighing 300 to 320 g, were used. On arrival, the rats were labelled and distributed randomly in pairs into type F polycarbonate cages (48×27×20 cm, U.A.R., 91-Epinay-Sur-Orge, France). The animals were stabled in an air-conditioned animal house, at a temperature of 22-24° C. The rats were given food (M25 croquettes, Ets Piétrement, 77-Provins, France) and drink ad libitum and were subjected to a 12-hour light-darkness cycle.
After one week of familiarization with the laboratory conditions, the rats were weighed and distributed randomly into 3 treatment groups (n=12). The rats of the different groups will all be handled in the same way and under the same conditions.
The behavioral despair test takes place over two sessions: • a 15-minute test session; • a 5-minute retest session, performed 24 hours later.
During the test session, the rat was subjected to forced swimming in a Plexiglas cylinder (20 cm in diameter and 50 cm in height, containing 25 cm of water at 25° C.) and its behavior was recorded over 15 minutes. At the end of the test, the rat was removed from the water, dried gently, treated and then returned to its dwelling cage.
During the retest, 24 hours later, the rat was again placed in the water and its behavior was recorded over 5 minutes.
The recorded variables are the period of immobility during the first 5 minutes of both the test and the retest.
The peptide FG-005 was suspended at a rate of 500 μg per 5 ml of 0.01N acetic acid, and then diluted with PBS to be administered at doses of 50 and 100 μg/kg via the i.v. route into the dorsal caudal vein of the rat, immediately after the test and 300 and 5 minutes before the retest the following day (Table X). 8-OH-DPAT was injected i.p.
A bilateral probability paired t test was used to compare the two periods of immobility of the test with those of the retest in each of the groups. The results are expressed as an average standard error of mean (SEM) (Table XI and FIG. 20). The statistical and graphical processing was performed using Statview5 and DeltaGraph® Pro 3.5 software.

male Wistar/AF EOPS rats [6] = assay: Behavioral despair test (forced swimming); format: in vivo, rat; conditions: 100 mg/kg; difference not statistically significant
male rats [7] = conditions: high doses; cited from earlier work

Compound: Gln-His-Asn-Pro-Arg (QHNPR; This is a peptide sequence that was designed to achieve therapeutic effects in mammals.) [FG-005, synthesized pentapeptide with N-terminal Glutamine]
- abdominal tone (FIG. 3) (male Wistar rats [1]): less stressed
- aggressiveness (male Wistar rats [1]): not associated with an increase of aggressiveness
- finger approach test (male Wistar rats [1]): increased interest
- startle response test (FIG. 2) (male Wistar rats [1]): less stressed
- vocalization when third parties approach (male Wistar rats [1]): increased vocalization
- wire maneuver test (male Wistar rats [1]): Significant response
- tail pinch test (FIGS. 4-7) (male Wistar rats [1]; 15, 30, 60, 120 minutes): less reactivity to nociceptive stimuli
- awareness state / sleep (FIG. 1) (male Wistar rats [1]; after 2 hours of tests): much less likely to fall asleep
- Latency of the first mount, Mean (male Wistar rats [2]; 3 μg/kg): 93.333 s
- latency of first mounts (in words) (male Wistar rats [2]; 3 μg/kg): significantly increased latency
- number of ejaculations in 45 minutes, Mean (male Wistar rats [2]; 3 μg/kg): 5.333
- refractory period between the second ejaculation and the next mount, Mean (male Wistar rats [2]; 3 μg/kg): 311.333 s
- Latency of the first mount, Mean (male Wistar rats [2]; 15 μg/kg): 23.000 s
- number of ejaculations in 45 minutes, Mean (male Wistar rats [2]; 15 μg/kg): 4.000
- refractory period between the second ejaculation and the next mount, Mean (male Wistar rats [2]; 15 μg/kg): 412.000 s
- Latency of the first mount, Mean (male Wistar rats [2]; 30 μg/kg): 13.667 s
- number of ejaculations in 45 minutes, Mean (male Wistar rats [2]; 30 μg/kg): 4.667
- refractory period between the second ejaculation and the next mount, Mean (male Wistar rats [2]; 30 μg/kg): 373.667 s
- avoidance symptoms during refractory periods (male Wistar rats [2]; treated vs control rats): loss of avoidance symptoms
- duration of refractory periods (in words) (male Wistar rats [2]; treated vs control rats): shortened
- interest in the other rat after ejaculation (male Wistar rats [2]; treated vs non-treated rats): interest is maintained
- number of episodes of intercourse (number of ejaculations in 45 minutes, in words) (male Wistar rats [2]; treated vs non-treated rats): significantly increased
- self-care, attention to personal toilet after each penetration (male Wistar rats [2]; treated vs non-treated rats): increased
- mean number of mounts per ejaculation ([3]; 0.3 μg/kg i.v.): 20.220
- number of mounts before the first ejaculation, Mean ([3]; 0.3 μg/kg i.v.): 31.111
- number of mounts before the fourth ejaculation (interejaculatory interval), Mean ([3]; 0.3 μg/kg i.v.): 11.500
- number of mounts before the third ejaculation (interejaculatory interval), Mean ([3]; 0.3 μg/kg i.v.): 13.444
- number of mounts with intromission, Mean ([3]; 0.3 μg/kg i.v.): 77.111
- total number of mounts with or without intromission, Mean ([3]; 0.3 μg/kg i.v.): 81.778
- mean number of mounts per ejaculation ([3]; 1 μg/kg i.v.): 26.911
- number of mounts before the first ejaculation, Mean ([3]; 1 μg/kg i.v.): 33.444
- number of mounts before the fourth ejaculation (interejaculatory interval), Mean ([3]; 1 μg/kg i.v.): 19.143
- number of mounts before the third ejaculation (interejaculatory interval), Mean ([3]; 1 μg/kg i.v.): 18.333
- number of mounts with intromission, Mean ([3]; 1 μg/kg i.v.): 90.556
- total number of mounts with or without intromission, Mean ([3]; 1 μg/kg i.v.): 96.667
- first ejaculation latency ([3]; 3 μg/Kg vs vehicle-injected rats): increased significantly
- total number of ejaculations ([3]; 3 μg/Kg, 45 min observation period): lower than that of vehicle-treated rats
- mean number of mounts per ejaculation ([3]; 3 μg/kg i.v.): 36.013
- number of mounts before the first ejaculation, Mean ([3]; 3 μg/kg i.v.): 37.500
- number of mounts before the fourth ejaculation (interejaculatory interval), Mean ([3]; 3 μg/kg i.v.): 24.167
- number of mounts before the third ejaculation (interejaculatory interval), Mean ([3]; 3 μg/kg i.v.): 22.889
- number of mounts with intromission, Mean ([3]; 3 μg/kg i.v.): 97.700
- total number of mounts with or without intromission, Mean ([3]; 3 μg/kg i.v.): 110.100
- third ejaculation latency ([3]; dose-related manner): tended also to increase
- second ejaculation latency ([3]; pronounced effect at 1 and 3 μg/Kg): significant dose-related prolongation
- aggressive impulse behavior ([3]; treated vs control rats): loss of aggressive impulse behavior
- duration of the first PEI (male rats [4]; 1 μg/kg vs control): significantly longer
- duration of the second PEI (male rats [4]; 0.3, 1 and 3 μg/kg): not significantly influenced
- duration of male socio-sexual behaviors during the first and second PEI (male rats [4]; 0.3, 1 and 3 μg/kg vs controls): significantly more time
- duration of male immobility during the first and second PEI (male rats [4]; 0.3, 1 and 3 μg/kg vs vehicle controls): significantly less time
- Immobility period, Retest session (male Wistar/AF EOPS rats [5]; 50 μg/kg i.v., 1440, 300, 5 min before retest): 141.20 ± 21.28
- period of immobility, retest compared with test (male Wistar/AF EOPS rats [5]; 50 μg/kg, difference not statistically significant): increase their period of immobility
- Immobility period, Retest session (male Wistar/AF EOPS rats [5]; 100 μg/kg i.v., 1440, 300, 5 min before retest): 121.50 ± 17.47
- behavioral resignation (antidepressant effect) (male Wistar/AF EOPS rats [5]; 50 and 100 μg/kg, i.v.): no behavioral resignation
- Immobility period, Test session (male Wistar/AF EOPS rats [5]; FG-50 group, 50 μg/kg i.v.): 119.00 ± 13.79
- Immobility period, Test session (male Wistar/AF EOPS rats [5]; FG-100 group, 100 μg/kg i.v.): 138.30 ± 11.03
- period of immobility, retest compared with test (male Wistar/AF EOPS rats [6]): reduce it

Compound: CCCN(CCC)C1CCc2cccc(O)c2C1 (centres unmarked) [8-OH-DPAT, reference compound]
- Immobility period, Test session (male Wistar/AF EOPS rats [5]; 0.5 mg/kg i.p. group): 109.20
- Immobility period, Retest session (male Wistar/AF EOPS rats [5]; 0.5 mg/kg i.p., 1440, 300, 30 min before retest): 31.60
- period of immobility, retest compared with test (male Wistar/AF EOPS rats [5]; 8-OH-DPAT 0.5 mg/kg i.p.): significantly reduce their period of immobility
- anti-resignation effect (male Wistar/AF EOPS rats [5]; reference substance, 0.5 mg/kg i.p.): significant anti-resignation effect

Compound: CC[C@H](C)[C@@H]1NC(=O)[C@H](Cc2ccc(O)cc2)NC(=O)[C@@H](N)CSSC[C@@H](C(=O)N2CCC[C@H]2C(=O)N[C@@H](CC(C)C)C(=O)NCC(N)=O)NC(=O)[C@H](CC(N)=O)NC(=O)[C@H](CCC(N)=O)NC1=O [oxytocin]
- locomotion (male rats [7]): decrease locomotion
